From the supplement of paper PMC10307832

Tests used:
Test in all cases: relative viability (nuclei count vs DMSO), 5 days (fraction); higher = more cells survive
[1] = compound: CCN1CCC(CC1)N2C=C(N=N2)CNC3=CC4=C(C(=CN=C4C(=C3)Cl)C#N)NC5=CC(=C(C=C5)F)Cl [KIN001-266] + CCNC(=O)c1noc(-c2cc(C(C)C)c(O)cc2O)c1-c1ccc(CN2CCOCC2)cc1 [Luminespib] (partner 0.01 µM)
How it was run: (§1)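 Values are medians from duplicate plates. Each reflects relative viability, defined as the nuclei count of treated wells over that of vehicle wells. Lung cancer cell lines in 1536-well plates were pin-tool dosed one day after seeding with one drug alone or with a fixed anchor-drug dose plus five library-drug doses (not always all listed) in √10 steps, then fixed, stained and imaged at 4× after 5 days.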

[2] = compound: CCN1CCC(CC1)N2C=C(N=N2)CNC3=CC4=C(C(=CN=C4C(=C3)Cl)C#N)NC5=CC(=C(C=C5)F)Cl [KIN001-266] + CC(=O)c1c(C)c2cnc(Nc3ccc(N4CCNCC4)cn3)nc2n(C2CCCC2)c1=O [Palbociclib] (partner 0.5 µM)
How it was run: as §1

[3] = compound: CCN1CCC(CC1)N2C=C(N=N2)CNC3=CC4=C(C(=CN=C4C(=C3)Cl)C#N)NC5=CC(=C(C=C5)F)Cl [KIN001-266] + CS(=O)(=O)N1CCN(Cc2cc3nc(-c4cccc5[nH]ncc45)nc(N4CCOCC4)c3s2)CC1 [Pictilisib] (partner 1 µM)
How it was run: as §1

[4] = compound: CCN1CCC(CC1)N2C=C(N=N2)CNC3=CC4=C(C(=CN=C4C(=C3)Cl)C#N)NC5=CC(=C(C=C5)F)Cl [KIN001-266] + COc1cccc2cc(-c3nc([C@H]4CC[C@H](C(=O)O)CC4)n4ncnc(N)c34)[nH]c12 [OSI-027] (partner 0.5 µM)
How it was run: as §1

| Cell Line | relative viability ([1]; first compound 0.08 µM) | relative viability ([1]; first compound 0.253 µM) | relative viability ([1]; first compound 0.8 µM) | relative viability ([1]; first compound 2.53 µM) | relative viability ([1]; first compound 8 µM) | relative viability ([2]; first compound 0.08 µM) | relative viability ([2]; first compound 0.253 µM) | relative viability ([2]; first compound 0.8 µM) | relative viability ([2]; first compound 2.53 µM) | relative viability ([2]; first compound 8 µM) | relative viability ([3]; first compound 0.08 µM) | relative viability ([3]; first compound 0.8 µM) | relative viability ([3]; first compound 8 µM) | relative viability ([4]; first compound 0.08 µM) | relative viability ([4]; first compound 0.253 µM) | relative viability ([4]; first compound 0.8 µM) | relative viability ([4]; first compound 2.53 µM) | relative viability ([4]; first compound 8 µM) | relative viability ([3]; first compound 0.253 µM) | relative viability ([3]; first compound 2.53 µM) |
| --- | --- | --- | --- | --- | --- | --- | --- | --- | --- | --- | --- | --- | --- | --- | --- | --- | --- | --- | --- | --- |
| LK-2 | 0.204 | 0.16 | 0.191 | 0.187 | 0.168 | 0.794 | 0.691 | 0.797 | 0.589 | 0.67 | 0.563 | 0.537 | 0.551 | 0.215 | 0.187 | 0.199 | 0.168 | 0.222 | – | – |
| NCI-H661 | 0.887 | 0.946 | 0.968 | 0.915 | 0.559 | 0.424 | 0.413 | 0.403 | 0.372 | 0.349 | 0.43 | 0.433 | 0.568 | 0.693 | 0.745 | 0.723 | 0.627 | 0.514 | 0.412 | 0.363 |
| HOP-62 | 0.906 | 0.923 | 0.876 | 0.944 | 0.787 | 0.473 | 0.472 | 0.457 | 0.479 | 0.485 | 0.592 | 0.728 | 0.506 | 0.888 | 0.893 | 0.877 | 0.765 | 0.797 | 0.813 | 0.372 |
| NCI-H1944 | 0.73 | 0.771 | 0.708 | 0.744 | 0.68 | 0.338 | 0.355 | 0.319 | 0.361 | 0.351 | 0.363 | 0.333 | 0.352 | 0.46 | 0.473 | 0.373 | 0.44 | 0.343 | 0.363 | 0.356 |
| SW 1573 | 0.268 | 0.272 | 0.195 | 0.238 | 0.211 | 0.39 | 0.376 | 0.457 | 0.426 | 0.356 | 0.523 | 0.502 | 0.39 | 0.778 | 0.627 | 0.616 | 0.515 | 0.513 | 0.448 | 0.474 |
| LU99A | 0.265 | 0.216 | 0.217 | 0.243 | 0.228 | 0.441 | 0.413 | 0.358 | 0.373 | 0.364 | 0.325 | 0.319 | 0.284 | 0.285 | 0.303 | 0.301 | 0.269 | 0.29 | 0.338 | 0.3 |
| NCI-H647 | 0.162 | 0.138 | 0.419 | 0.179 | 0.153 | 0.432 | 0.399 | 0.428 | 0.479 | 0.351 | 0.461 | 0.491 | 0.414 | 0.669 | 0.691 | 0.577 | 0.857 | 0.544 | 0.405 | 0.282 |
| A-427 | 0.874 | 0.843 | 0.979 | 0.913 | 0.969 | 0.511 | 0.524 | 0.5 | 0.493 | 0.526 | 0.778 | 0.582 | 0.754 | 0.492 | 0.478 | 0.499 | 0.475 | 0.48 | 0.735 | 0.72 |
